These results are taken from ChEMBL document CHEMBL5620401, “Design, synthesis, and biological evaluation of novel spirocyclic compounds as potential anti-glioblastoma agents” (Eur J Med Chem, 2023).

The test system of data set [1] is U-87 MG. Nature of the data set: Antiproliferative activity against human U87 cells assessed as cell viability measured after 72 hrs by MTT assay. The class given is functional, cell-based, U-87MG ATCC. For orientation: Tetrazolium dyes change colour on reduction, which living cells bring about.
Data set [2] has as its system U-251. The data set is described as follows: Antiproliferative activity against human U-251 cells assessed as cell viability measured after 72 hrs by MTT assay. The class given is functional, cell-based. The settings on record: for IC50: U-251, 72 h.
Data set [3] relates to U-251. The data set is described as follows: Antiproliferative activity against human U-251 cells assessed as inhibition rate at 20 uM measured after 72 hrs by MTT assay relative to control. It counts as functional.
The test system of data set [4] is U-87 MG. The data set is described as follows: Antiproliferative activity against human U87 cells assessed as inhibition rate at 20 uM measured after 72 hrs by MTT assay relative to control. The class given is functional, U-87MG ATCC.
Data set [5] in a line: Permeability coefficient of compound by lipid-PAMPA assay. It counts as ADME. The settings on record: for Papp: read-out: Peff.

Activity calls are given as the source filed them. The calls are words filed in the database; no cut-off is given here.

Regarding `O=C(/C=C/c1ccc(C(=O)N2CCN(Cc3ccccc3)C23COC3)cc1)c1ccsc1`, the half-inhibitory concentration (IC50) in the data set on U-87 MG [1] turned out to be 8.5 µM; with U-251 [2], 3.6 µM.

On to `COc1cc(C(=O)/C=C/c2ccc(C(=O)N3CCN(Cc4ccccc4)C34COC4)o2)cc(OC)c1OC`, for which the IC50 stood at 14.9 µM in the data set with U-87 MG [1] and 7.6 µM with U-251 [2].

Turning to `O=C(/C=C/c1ccc(C(=O)N2CCN(Cc3ccccc3)C23COC3)o1)c1ccncc1`, the 50% inhibitory concentration (IC50) in the data set on U-87 MG [1] worked out at 10.5 µM; in the data set on U-251 [2] it was 6 µM.

Regarding `COc1ccc(C(=O)/C=C/c2cccc(C(=O)N3CCN(Cc4ccccc4)C34COC4)c2)cc1OC`, the IC50 in the data set with U-87 MG [1] worked out at 4.4 µM; in the data set with U-251 [2], 1.6 µM.

For the compound `COc1cc(/C=C/C(=O)c2ccc(C(=O)N3CCN(Cc4ccccc4)C34COC4)s2)cc(OC)c1OC`, the half-inhibitory concentration (IC50) amounted to 2 µM in the data set on U-87 MG [1] and 1.4 µM in the data set with U-251 [2].

With `COc1ccc(C(=O)/C=C/c2ccccc2C(=O)N2CCN(Cc3ccccc3)C23COC3)cc1OC`, the IC50 in the data set on U-87 MG [1] and in the data set with U-251 [2] was over 10 µM each time.

On to `N#Cc1ccc(C(=O)/C=C/c2ccc(C(=O)N3CCN(Cc4ccccc4)C34COC4)cc2)cc1`, for which the IC50 in the data set on U-87 MG [1] is 6.3 µM; in the data set on U-251 [2], 5.4 µM.

Regarding `COc1cc(C(=O)CCc2ccc(C(=O)N3CCN(Cc4ccccc4)C34COC4)cc2)cc(OC)c1OC`, the outcome in the data set with U-251 [2] was Active.

Take `O=C(/C=C/c1ccc(C(=O)N2CCN(Cc3ccccc3)C23COC3)s1)c1ccncc1`: the values for the IC50 in the data set on U-87 MG [1] and in the data set with U-251 [2] were 6.7 µM and 6.6 µM, respectively.

As to `O=C(/C=C/c1cccc(C(=O)N2CCN(Cc3ccccc3)C23COC3)c1)c1ccccc1`, the figures for the IC50 in the data set with U-87 MG [1] and in the data set on U-251 [2] were 3.1 µM and 2.1 µM, respectively.

On to `O=C(/C=C/c1ccc(C(=O)N2CCN(Cc3ccccc3)C23COC3)o1)c1ccsc1`, for which the IC50 was over 10 µM in the data set with U-87 MG [1] and 12.6 µM with U-251 [2].

As to `COc1cc(/C=C/C(=O)c2ccc(C(=O)N3CCN(Cc4ccccc4)C34COC4)cc2)cc(OC)c1OC`, the IC50 in the data set on U-87 MG [1] was 3.7 µM; with U-251 [2], 2.2 µM.

For the compound `COc1ccc(C(=O)/C=C/c2ccc(C(=O)N3CCN(Cc4ccccc4)C34COC4)cc2)cc1`, the IC50 with U-87 MG [1] amounted to 3.2 µM; with U-251 [2], 2.4 µM.

Consider `O=C(/C=C/c1ccccc1C(=O)N1CCN(Cc2ccccc2)C12COC2)c1ccccc1`, for which the IC50 in the data set with U-87 MG [1] was determined as 10.4 µM; in the data set on U-251 [2], 7.4 µM.

`COc1cc(C(=O)/C=C/c2ccc(C(=O)N3CCN(Cc4ccccc4)C34COC4)s2)cc(OC)c1OC`: the IC50 with U-87 MG [1] amounted to 4 µM; in the data set with U-251 [2] it was 2.1 µM.

Consider `COc1ccc(C(=O)/C=C/c2ccccc2C(=O)N2CCN(Cc3ccccc3)C23COC3)c(OC)c1OC`, for which the values for the IC50 in the data set on U-87 MG [1] and in the data set on U-251 [2] were over 10 µM and 11 µM, respectively.

Take `O=C(CCl)N1CCN(Cc2ccccc2)C12COC2`: the 50% inhibitory concentration (IC50) in the data set on U-87 MG [1] stood at 11.5 µM; in the data set with U-251 [2], 8.6 µM. For the same compound, the inhibition at 20 µM in the data set on U-251 [3] was determined as 87.7%; in the data set with U-87 MG [4], 90.1%. In data set [5], the Papp came out at 23.4 ×10⁻⁶ cm/s.

With `COc1cc(C(=O)/C=C/c2cccc(C(=O)N3CCN(Cc4ccccc4)C34COC4)c2)cc(OC)c1OC`, the results for the IC50 in the data set on U-87 MG [1] and with U-251 [2] were 2.2 µM and 1.1 µM, respectively.

Consider `COc1ccc(C(=O)/C=C/c2cccc(C(=O)N3CCN(Cc4ccccc4)C34COC4)c2)cc1`, for which the IC50 in the data set with U-87 MG [1] turned out to be 2.6 µM; with U-251 [2] it was 2 µM.

Regarding `O=C(/C=C/c1ccc(C(=O)N2CCN(Cc3ccccc3)C23COC3)cc1)c1ccccn1`, the IC50 with U-87 MG [1] came out at 5.2 µM; in the data set with U-251 [2] it was 4.2 µM.

Take `COc1ccc(C(=O)/C=C/c2ccccc2C(=O)N2CCN(Cc3ccccc3)C23COC3)cc1`: the IC50 was over 10 µM in the data set on U-87 MG [1] and 11.6 µM in the data set on U-251 [2].

For the compound `O=C(/C=C/c1cccc(C(=O)N2CCN(Cc3ccccc3)C23COC3)c1)c1ccncc1`, the IC50 stood at 7.2 µM in the data set with U-87 MG [1] and 6.2 µM in the data set on U-251 [2].

Consider `O=C(/C=C/c1ccc(C(=O)N2CCN(Cc3ccccc3)C23COC3)s1)c1ccsc1`, for which the IC50 stood at 4.1 µM in the data set with U-87 MG [1] and 1.9 µM in the data set with U-251 [2].

Regarding `O=C(CBr)N1CCN(Cc2ccccc2)C12COC2`, the figures for the IC50 in the data set on U-87 MG [1] and in the data set on U-251 [2] were 14.6 µM and 13.9 µM, respectively. The inhibition at 20 µM in the data set on U-251 [3] was determined as 63.9%; in the data set with U-87 MG [4], 74.3%. Also, the Papp in data set [5] turned out to be 26.9 ×10⁻⁶ cm/s.

`N#Cc1cccc(C(=O)/C=C/c2ccc(C(=O)N3CCN(Cc4ccccc4)C34COC4)cc2)c1`: the IC50 came out at 6.1 µM in the data set with U-87 MG [1] and 5.4 µM with U-251 [2].

`COc1cc(C(=O)/C=C/c2ccccc2C(=O)N2CCN(Cc3ccccc3)C23COC3)cc(OC)c1OC`: the values for the IC50 in the data set on U-87 MG [1] and in the data set with U-251 [2] were 5.5 µM and 4.9 µM, respectively.

In the case of `COc1ccc(C(=O)/C=C/c2ccc(C(=O)N3CCN(Cc4ccccc4)C34COC4)cc2)c(OC)c1OC`, the IC50 was 3.5 µM in the data set on U-87 MG [1] and 1.7 µM in the data set on U-251 [2].

As to `COc1ccc(C(=O)/C=C/c2cccc(C(=O)N3CCN(Cc4ccccc4)C34COC4)c2)c(OC)c1OC`, the IC50 was found to be 2 µM in the data set with U-87 MG [1] and 1.2 µM in the data set with U-251 [2].

For `O=C(/C=C/c1ccncc1)c1ccc(C(=O)N2CCN(Cc3ccccc3)C23COC3)cc1`, the IC50 is 3 µM in the data set on U-87 MG [1] and 3.3 µM in the data set on U-251 [2].

As to `O=C(/C=C/c1ccc(C(=O)N2CCN(Cc3ccccc3)C23COC3)cc1)c1ccncc1`, the IC50 in the data set with U-87 MG [1] and in the data set with U-251 [2] was 5.3 µM each time.

Turning to `O=C(/C=C/c1ccc(C(=O)N2CCN(Cc3ccccc3)C23COC3)cc1)c1ccccc1`, the IC50 in the data set on U-87 MG [1] amounted to 5 µM; with U-251 [2] it was 3 µM.

As for `Cn1nnc2c(C(N)=O)ncn2c1=O` [TEMOZOLOMIDE], the IC50 in the data set on U-87 MG [1] and in the data set on U-251 [2] was over 50 µM throughout. Further, in data set [5], the Peff is 0.002 10^-6 cm/s.

Consider `O=C(/C=C/c1ccc(C(=O)N2CCN(Cc3ccccc3)C23COC3)cc1)c1cccnc1`, for which the IC50 in the data set on U-87 MG [1] is 7.3 µM; in the data set on U-251 [2], 5.5 µM.

With `COc1ccc(C(=O)/C=C/c2ccc(C(=O)N3CCN(Cc4ccccc4)C34COC4)cc2)cc1OC`, the results for the IC50 in the data set with U-87 MG [1] and in the data set on U-251 [2] were 3.7 µM and 1.8 µM, respectively.

The IC50 is the concentration needed to halve the response being measured. Usually inhibition stands for the change of the read-out against control, counted positive when it falls.
